We go through two compounds from patent US20150141523A1, “COMPOUNDS FOR USE IN THE TREATMENT OF AUTOIMMUNE INFLAMMATORY DISEASE” (Venantius Limited, priority 2012, published 2015).

For series [1], the system named is β-hexosaminidase release from RBL-2H3 cells. The note with it: RBL-2H3 cells stimulated by calcium ionophore A23187; Bioorg. Med. Chem. Lett. 19(20), 2009; cited from earlier work.
The next series relates to CD-1 mice. Briefly: Methylated bovine serum albumin (mBSA) delayed-type hypersensitivity mouse paw swelling. It is filed as in vivo. The note with it: 10 mg/kg i.p.; mBSA challenge alone 107%. The protocol:
CD-1 mice (25-35 gms) were anaesthetised with halothane and immunised intradermal (i.d.) with mBSA/Freunds complete adjuvant containing Mycobacterium butyricum (FCA(B)) emulsion at four sites (62.5 μg/25 μl at each site) on the shaved chest on day 1. The mBSA/FCA(B) is prepared by emulsifying equal volumes of mBSA and FCA(B) solutions (the mBSA solution was first prepared in sterile isotonic saline at a concentration of 5 mg/mL). On days 8 and 9, mice were dosed intraperitoneal (i.p.) with either 1% carboxymethylcellulose (CMC), CycA or a novel compound in 1% CMC. Two hours after the second i.p. dose (day 9), anaesthetised mice were challenged, by injecting mBSA in saline subcutaneous (s.c.) in the dorsal surface of the right hind paw and s.c. in the left hind paw with saline alone (20 μl each injection). 24 hours later, mice were sacrificed by cervical dislocation, and the swelling of each paw was measured in triplicate with a plethysmometer.
Paw swelling (% difference)={mBSA injected paw volume (mls)}−{saline injected paw volume (mls)}×100%
Saline Injected Paw Volume (mls)

The next series has as its system BalbC mice. Briefly: Arachidonic acid mouse ear oedema model. It is filed as in vivo. The note with it: 300 μg/ear in acetone, topical; arachidonic acid alone 86%. The protocol:
The arrachidonic mouse ear oedema model is an acute inflammation model based on activation of ecosanoid pathways. The mouse ear oedema model was performed using BalbC mice (25-35 g), of either sex. The ear was treated by the topical application (10 μl) of solvent (acetone 100%) or test drug (300 μg/ear in acetone) or Indomethacin (300 μg/ear in acetone). After one hour, oedema was induced by the topical application of arachidonic acid (10 μl at 0.4 g/ml in acetone). The width of each ear was measured, both before and 60 min after the induction of oedema, using a micrometer screw gauge. Ear oedema was calculated by comparing the ear width before and after induction of oedema and expressed as percentage normal. Animals were killed using CO2, without recovering from sedation.

The next series deals with Jurkat cells. Briefly: Jurkat cell viability (Acridine Orange/Ethidium Bromide). It is filed as cell-based. The protocol:
(A) Anti-TCR/CD28-mediated activation of Jurkat cells: Experiments involving anti-TCR/CD28-mediated activation of Jurkat T lymphocytes were carried out on 24-well cell culture plates. The plates were coated with a 1/100 dilution of rabbit anti-mouse IgG in sterile PBS (1×) and incubated overnight at 4OC. Unbound antibody was aspirated and the wells were gently rinsed with warm sterile PBS. The PBS was aspirated and the wells were coated with a 1/100 dilution of anti-TCR antibody (OKT-3) and a 1/200 dilution of anti-CD28 antibody (both antibodies pre-mixed prior to addition to the plates) in sterile PBS. The plates were then incubated for 1-2 hours at 37° C. Unbound antibody was aspirated and the wells were gently rinsed with warm PBS. The PBS was left on the plate until the Jurkat cells were ready to be added to the plate. The Jurkat cells were harvested from the T-75cm2 cell culture flasks and resuspended at a density of 0.5×10^6 cells per ml. The compounds were dissolved at a specified stock concentration (see results section) and diluted to the required concentration by adding the drug to the cell suspension. The cells were then pre-incubated with the compounds or with an equivalent volume of drug vehicle control (DMSO) for 30 minutes prior to adding the cell suspension to the antibody-coated plates. Cyclosporine A (1 μM) was used as a positive control to inhibit IL-2 production from activated T cells and was preincubated with the 6 cells as described above in parallel. The cells were then incubated on the plates with the acti-TCR/CD28 antibodies for 24 hours at 37° C. and 5% CO2 in a humidified atmosphere. After 24 hours, the cell suspension was removed from the plates and the cells were pelleted by centrifugation. The cell culture supernatant was saved and analysed for secreted IL-2 by ELISA. The cell pellet was saved and cell viability was measured using Acridine Orange/Ethidium Bromide cell viability staining solution.
The cell pellet was resuspended in 20 μl of Acridine Orange/Ethidium Bromide staining solution. A portion of this cell suspension was placed on a haemocytometer and analysed under a fluorescence microscope. […] The ratio of viable cells: non-viable cells were calculated for each activation time point/drug treatment.

`O[C@@H]1c2ccccc2C[C@]1(Cc1ccccc1)C1=Cc2ccccc2C1` (mixture of isomers) [Compound 5, (R,S and SR)2-Benzyl-2,3-dihydro-1H,1′H-2,2′-biinden-1-ol]: in series [1], the “inhibition of β-hexosaminidase release” value is on record as “dose-dependant inhibition”. This compound registered a mBSA paw swelling in the series on CD-1 mice of 72%. Besides, the “ear swelling (increase in ear thickness)” value with BalbC mice is given as 62%. In addition, the cell viability entry in the series with Jurkat cells is on record as “without affecting cell viability”.

`O[C@H]1c2ccccc2C[C@]1(Cc1ccccc1)C1=Cc2ccccc2C1` (mixture of isomers) [Compound 6, (S,S and RR)2-Benzyl-2,3-dihydro-1H,1′H-2,2′-biinden-1-ol]: the mBSA paw swelling in the series with CD-1 mice is listed as 71%. For the same compound, the “ear swelling (increase in ear thickness)” value in the series with BalbC mice turned out to be 50%. In the series with Jurkat cells, the cell viability result is listed as “without affecting cell viability”.
